These results are taken from EP0973746B1, “SUBSTITUTED 3-CYANO QUINOLINES” (Wyeth Holdings Corporation, priority 1997, dated 1998).

In brackets after ≈: the same amount, converted by molar mass. Several values for one entry are separate records, joined by “and”; a condition that tells them apart may be missing. Equal values may be shown once. Where a name gives a salt, the structure may show the parent alone. Read-outs that look alike come from different tables or passages of the source.

The subject of one series is A431. Briefly: Inhibition of cancer cell growth as measured by cell number, A431.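 On all read-outs here: human A431 line, picked because it overexpresses epidermal growth factor receptor (EGFR).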 Type of series: cell-based, human. Conditions: Table 8; for IC50: Homo sapiens, A-431, 48 h.
The test system of the next series is SW620. Briefly: Inhibition of cancer cell growth as measured by cell number, SW620.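 On all read-outs here: SW620 was included as a cell line with little or no EGFR or HER2/neu expression, in contrast to receptor-overexpressing lines.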 It is filed as cell-based, human. Conditions: Table 8; for IC50: Homo sapiens, SW-620, 48 h.
Series [1] concerns the target T1, His-tagged cytoplasmic domain of EGFR (Homo sapiens, UniProt P00533).
T1 construct: containing the EGFR cDNA encoding amino acids 645 - 1186 preceded by Met-Ala-(His)6; made in house; host or cells: Sf9 cells, recombinant baculovirus vHcEGFR52
Briefly: Inhibition of Epidermal Growth Factor Receptor Kinase (EGF-R) using recombinant enzyme.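 Further: radiometric kinase assay measuring radiolabeled phosphate transfer from ATP onto the peptide tyrosine by scintillation counting, control is reaction without compound, background subtracted, IC50 from dose-response curve.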 Type of series: biochemical.
Method: The enzyme used in this assay is the His-tagged cytoplasmic domain of EGFR.
Compounds to be evaluated were made into 10 mg/mL stock solutions in 100% dimethylsulfoxide (DMSO). Prior to experiment, stock solutions were diluted to 500 µM with 100% DMSO and then serially diluted to the desired concentration with HEPES buffer (30 mM HEPES pH 7.4).
For the enzyme reaction, 10 µL of each inhibitor (at various concentrations) were added to each well of a 96-well plate. […] This was allowed to sit for 10 min on ice and was followed by the addition of 5 µl peptide (80 µM final conc.), 10µl of 4X Buffer (Table A), 0.25 µL ^33P-ATP and 12 µL H2O. The reaction was allowed to run for 90 min at room temperature and was followed by spotting the entire volume on to precut P81 filter papers. The filter discs were washed 2X with 0.5% phosphoric acid and radioactivity was measured using a liquid scintillation counter.
The % inhibition of the test compound was determined for at least three different concentrations and the IC50 value was evaluated from the dose response curve. […] CPM(control) is in units of counts per minute and was a number expressing the amount of radiolabeled ATP (g-33P) incorporated into the RR-SRC peptide substrate by the enzyme after 90 minutes at room temperature in the absence of test compound as measured by liquid scintillation counting. The CPM values were corrected for the background counts produced by ATP in the absence of the enzymatic reaction. The IC50 values reported in TABLE 2 are averages of the number of tests conducted.

The test system of another series is SKBR3. The experiment in a line: Inhibition of cancer cell growth as measured by cell number, SKBR3.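 On all read-outs here: SK-BR-3 cells were selected as a line overexpressing HER2/neu.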 It is filed as cell-based, human. Conditions: Table 8; for IC50: Homo sapiens.
For series [2], the target named is recombinant human MEK 1 (MAPKK) and recombinant human ERK2 (MAPK). Briefly: Mitogen Activated Protein Kinase (MAPK) assay, two component coupled MEK 1 / ERK2.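 Further: MEK 1-activated ERK2 phosphorylates MBP or Myc peptide with 33P-ATP, filter capture and scintillation counting, inhibitor preincubated with ERK2 30 min at 0 °C, inhibition relative to uninhibited control.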 It is filed as biochemical. The following applies: separate entries for the same compound = evaluated more than one time.
For series [3], the system named is human epidermoid tumors (A431). The experiment in a line: In vivo inhibition of the growth of human epidermoid tumors (A431). Conditions: Table 11; for S/T = No. Survivors/No. Treated: Day +28 post tumor staging. As to the method: Representative compounds of this invention (listed below) were evaluated in an in vivo standard pharmacological test procedure which measured its ability to inhibit the growth of human epidermoid tumors. […] BALB/c nu/nu female mice (Charles River, Wilmington, MA) were used in this in vivo standard pharmacological test procedure. A unit of 5 X 10^6 cells were injected SC into mice. When tumors attained a mass of between 100 and 150 mg, the mice were randomized into treatment groups (day zero). […] Control animals received no drug. Tumor mass was determined every 7 days [(length X width^2)/2] for 28 days post staging. Relative tumor growth (Mean tumor mass on days 7, 14, 21, and 28 divided by the mean tumor mass on day zero) is determined for each treatment group.

The mark [4] stands for this setting: cell number, Sulforhodamine B, 48 hours exposure.
Where [5] appears, read: recombinant enzyme, RR-SRC peptide, average of the number of tests, read-out: IC50.
The mark [6] stands for this setting: cell number, Sulforhodamine B, 48 hours exposure, read-out: IC50 A431.
The mark [7] stands for this setting: cell number, Sulforhodamine B, 48 hours exposure, read-out: IC50 SW620.
[8] abbreviates: SK-BR-3, cell number, Sulforhodamine B, 48 hours exposure, read-out: IC50 SKBR3.
Setting [9] is: SK-BR-3, 48 h, read-out: IC50 SKBR3, cell number, Sulforhodamine B, 48 hours exposure.
[10] abbreviates: 80 mg/kg/dose IP on days 1,5 and 9.
[11] abbreviates: 80 mg/kg/dose PO on days 1 through 10.

From the text for SKBR3: (§1) The cell lines were chosen since they overexpressed epidermal growth factor receptor (EGFR) (i.e. A431) or HER2/neu (SKBR3), or had little to no expression of the these receptors (SW620, LOX, MCF7).
From the text for SW620: as §1

For the molecule `COc1cc2ncc(C#N)c(Nc3cccc(Br)c3)c2cc1NC(=O)C=CCN(C)C` [Example 198, 4-Dimethylamino-but-2-enoic acid [4-(3-brom-phenylamino)-3-cyano-7-methoxy-quinolin-6yl]-amide], the “IC50 A431” value with A431 (setting [4]) stood at 0.002 µg/mL (≈ 0.00416 µM). For the same molecule, in the series on SW620 (setting [4]), the “IC50 SW620” value was 0.4 µg/mL (≈ 0.833 µM). The IC50 – broadly, the midpoint of a concentration-inhibition curve – in series [1] was 0.008 nM. The “IC50 SKBR3” value in the series with SKBR3 (setting [4]) was 0.03 µg/mL (≈ 0.0625 µM).

For `CC#CC(=O)Nc1ccc2ncc(C#N)c(Nc3cccc(OC)c3)c2c1` [Example 139, N-{3-Cyano-4-[(3-methoxyphenyl)amino]-6-quinolinyl}-2-butynamide], the IC50 was found to be 500 nM in series [1] (setting [5]) and 35000 nM in series [2].

On to `N#Cc1cnc2ccc(NC(=O)/C=C\Cl)cc2c1Nc1cccc(Br)c1` [Example 327, N-[4-(3-Bromo-phenylamino)-3-cyano-quinolin-6-yl]-3-chloro-(Z)-acrylamide], for which the IC50 in series [1] (setting [5]) was 10 nM.

As for `CC#CC(=O)Nc1ccc2ncc(C#N)c(Nc3cccc(C)c3)c2c1` [Example 132, N-{3-Cyano-4-[(3-methylphenyl)amino]-6-quinolinyl}-2-butynamide], the concentration for half-maximal inhibition (IC50) in series [1] (setting [5]) is 600 nM; in series [2] it was above 100000 nM.

As for `CCN(CC)CC=CC(=O)Nc1cc2c(Nc3cccc(Br)c3)c(C#N)cnc2cc1OC` [Example 199, 4-Diethylamino-but-2-enoic acid [4-(3-bromo-phenylamino)-3-cyano-7-methoxy-quinolin-6-yl]-amide], the 50% inhibitory concentration (IC50) turned out to be 0.048 µg/mL (≈ 0.0944 µM) with A431 (setting [6]), 0.433 µg/mL (≈ 0.852 µM) in the series with SW620 (setting [7]), 0.5 nM in series [1] (setting [5]) and 0.076 µg/mL (≈ 0.149 µM) with SKBR3 (setting [8]).

Consider `C=CC(=O)Nc1ccc2ncc(C#N)c(Nc3ccc(F)c(Cl)c3)c2c1` [Example 144, N-{4-[(3-Chloro-4-fluorophenyl)amino]-3-cyano-6-quinolinyl}-2-propenamide], for which the concentration for half-maximal inhibition (IC50) is 65 nM in series [1] (setting [5]) and 40000 nM in series [2].

As for `C=CC(=O)Nc1ccc2ncc(C#N)c(Nc3cccc(F)c3)c2c1` [Example 88, N-[3-Cyano-4-(3-fluorophenylamino)quinolin-6-yl]acrylamide], in series [1] (setting [5]), the half-maximal inhibitory concentration (IC50) was determined as 80 nM.

For the molecule `N#Cc1cnc2ccc(N)cc2c1Nc1cccc(I)c1` [Example 130, 6-Amino-4-[(3-iodophenyl)amino]-3-quinolinecarbonitrile], the IC50 in series [1] (setting [5]) is 100 nM; in series [2] it was above 100000 nM.

As for `CC#CC(=O)Nc1ccc2ncc(C#N)c(Nc3ccc(F)c(Cl)c3)c2c1` [Example 143, N-{4-[(3-Chloro-4-fluoro-phenyl)amino]-3-cyano-6-quinolinyl}-2-butynamide], the IC50 in series [1] (setting [5]) turned out to be 30 nM; in series [2], 40000 nM.

With `COc1cc2ncc(C#N)c(Nc3cccc(Br)c3)c2cc1NC(=O)C#CCN(C)C` [Example 227, 4-Dimethylamino-but-2-ynoic acid [4-(3-bromo-phenylamino)-3-cyano-7-methoxy-quinol-6-yl]-amide], the IC50 with A431 (read-out: IC50 A431, cell number, Sulforhodamine B, 48 hours exposure) is 0.02 µg/mL (≈ 0.0418 µM); in the series with SW620 (read-out: IC50 SW620, cell number, Sulforhodamine B, 48 hours exposure), 0.1 µg/mL (≈ 0.209 µM); in series [1] (setting [5]), 10 nM; with SKBR3 (setting [9]), 0.2 µg/mL (≈ 0.418 µM).

Turning to `COc1cc(NC(=O)C=CCN(C)C)cc2c(Nc3cccc(Br)c3)c(C#N)cnc12` [Example 224], in series [1] (setting [5]), the IC50 was determined as 1000 nM.

Turning to `C=C(CN1CCOCC1)C(=O)Nc1ccc2ncc(C#N)c(Nc3cccc(Br)c3)c2c1` [Example 171, N-{4-[(3-Bromophenyl)amino]-3-cyano-6-quinolinyl}-2-morpholin-4-ylmethyl-2-propenamide], the IC50 in series [1] (setting [5]) is 6.5 nM.

For the molecule `COc1cc2ncc(C#N)c(Nc3cccc(CS)c3)c2cc1OC` [Example 270], the 50% inhibitory concentration (IC50) in series [1] (setting [5]) is 10 nM; in series [2] it was above 100000 nM.

Consider `C=CC(=O)Nc1ccc2ncc(C#N)c(Nc3cccc(Cl)c3)c2c1` [Example 135, N-4-[(3-Chlorophenyl)amino]-3-cyano-6-guinolinyl-2-propenarnide], for which the concentration for half-maximal inhibition (IC50) in series [1] (setting [5]) was found to be 10 nM.

In the case of `N#Cc1cnc2ccc(N)cc2c1Nc1ccc(Br)cc1` [Example 152, 6-Amino-4-[(4-bromophenyl)amino]-3-quinolinecarbonitrile], the half-maximal inhibitory concentration (IC50) in series [1] (setting [5]) was found to be 100 nM.

For the molecule `CCOc1cc2ncc(C#N)c(Nc3ccc(F)c(Cl)c3)c2cc1OCC` [Example 256, 4-(3-Chloro-4-fluorophenylamino)-6,7-diethoxy-3-quinolinecarbonitrile], in series [1] (setting [5]), the IC50 turned out to be 100 nM.

Regarding `CCN(CC)CC=CC(=O)Nc1ccc2ncc(C#N)c(Nc3ccc(F)c(Br)c3)c2c1` [Example 173, N-{4-[(3-Bromo-4-fluorophenyl)amino]-3-cyano-6-quinolinyl}-4-diethylamino-2-butenamide], the figures for the half-inhibitory concentration (IC50) in series [1] (setting [5]) and in series [2] were 30 nM and 8000 nM, respectively.

With `Cc1cccc(Nc2c(C#N)cnc3ccc(N)cc23)c1` [Example 133, 6-Amino-4-[(3-methylphenyl)amino]-3-quinolinecarbonitrile], the IC50 in series [1] (setting [5]) is 6 nM; in series [2], above 100000 nM.

For the molecule `N#Cc1cnc2ccc(NC(=O)/C=C/Cl)cc2c1Nc1cccc(Br)c1` [Example 326, N-[4-(3-Bromo-phenylamino)-3-cyano-quinolin-6-yl]-3-chloro-(E) acrylamide], the IC50 in series [1] (setting [5]) was found to be 0.05 nM; in series [2] it was 35000 nM.

For `COC/C=C\C(=O)Nc1ccc2ncc(C#N)c(Nc3ccc(F)c(Cl)c3)c2c1` [Example 185, N-[4-[(3-Chloro-4-fluorophenyl)amino]-3-cyano-6-quinolinyl]-4-methoxy-(Z)-2-butenamide], the IC50 in the series with A431 (setting [6]) was 0.34 µg/mL (≈ 0.828 µM); in the series with SW620 (setting [7]), 2.18 µg/mL (≈ 5.31 µM); in series [1] (setting [5]), at least 10000 nM; with SKBR3 (setting [8]), 1.11 µg/mL (≈ 2.7 µM).

As to `COc1cc2ncc(C#N)c(Nc3ccc(Cl)cc3F)c2cc1N` [Example 360, 6-Amino-4[(4-Chloro-2-fluorophenyl)amino]-7-methoxy-3-quinolinecarbonitrile], the half-maximal inhibitory concentration (IC50) in series [1] (setting [5]) is 500 nM.

On to `C=CC(=O)Nc1ccc2ncc(C#N)c(Nc3ccc(Br)c(Br)c3)c2c1` [Example 380, N-[3-Cyano-4-(3,4-dibromophenylamino)quinolin-6-yl]acrylamide], for which the figures for the IC50 in series [1] (setting [5]) and in series [2] were 7 nM and above 100000 nM, respectively.

As for “4-Dimethylamino-but-2-enoic acid [4-(3-bromophenylamino)-3-cyano-quinolin-6-yl]-amide [Example 99]”, in the series on A431 (setting [4]), the “IC50 A431” value was 0.3 µg/mL and 0.159 µg/mL. In addition, the IC50 in series [1] (setting [5]) amounted to 30 nM. In addition, the “IC50 SKBR3” value with SKBR3 (setting [4]) is 0.1 µg/mL and 0.078 µg/mL.

On to `CN(C)c1ccc2ncc(C#N)c(Nc3cccc(Br)c3)c2c1` [Example 395, 4-(3-Bromophenylamino)-6-dimethylaminoquinoline-3-carbonitrile Hydrochloride], for which the IC50 in series [1] (setting [5]) came to 500 nM; in series [2] it was 15000 nM.

As for `COc1cc2ncc(C#N)c(Nc3cccc(N)c3)c2cc1OC` [Example 264, 4-(3-Aminophenylamino)-6,7-dimethoxy-3-quinolinecarbonitrile], the IC50 in series [1] (setting [5]) came to 500 nM; in series [2], 3000 nM.

In the case of `C=C(C)C(=O)Nc1ccc2ncc(C#N)c(Nc3cccc(Br)c3)c2c1` [Example 383, N-[4-(3-Bromophenylamino)-3-cyanoquinolin-6-yl]-2-methylacrylamide], the IC50 in series [1] (setting [5]) is 7 nM; in series [2], above 100000 nM.

On to `CCOc1cc2ncc(C#N)c(Nc3cccc(Br)c3)c2cc1NC(=O)C=CCN(C)C` [Example 216, 4-Dimethylamino-but-2-enoic acid [4-(3-bromo-phenylamino)-3-cyano-7-ethoxy-quinolin-6-yl]-amide], for which, in series [3] (setting [10]), the “%T/C Day 7” value came to 14%, the “%T/C Day 14” value is 12%, the “%T/C Day 21” value is given as 17% and the “%T/C Day 28” value worked out at 19%. For the same molecule, the “S/T = No. Survivors/No. Treated” value in series [3] (setting [10]) is listed as 5/5. Further, in series [3] (setting [11]), the “%T/C Day 7” value is 6%, the “%T/C Day 14” value is on record as 6%, the “%T/C Day 21” value is reported as 12% and the “%T/C Day 28” value is given as 21%. In series [3] (setting [11]), the “S/T = No. Survivors/No. Treated” value is 5/5. In addition, in the series on SKBR3 (setting [9]), the IC50 turned out to be 0.012 µg/mL (≈ 0.0243 µM). In addition, in the series with SKBR3 (setting [4]), the “IC50 SKBR3” value amounted to 0.015 µg/mL (≈ 0.0303 µM).

As for `COc1cc2c(Nc3cccc(Br)c3)c(C#N)cnc2cc1OCCCN1CCOCC1` [Example 313, 4-(3-Bromo-phenylamino)-6-methoxy-7-(3-morpholin-4-yl-propoxy)-quinoline-3-carbonitrile], the IC50 in series [1] (setting [5]) was 400 nM; in series [2], above 100000 nM.
